Measured values reported in PMC10799935, “Discovery of a peripheral 5HT2A antagonist as a clinical candidate for metabolic dysfunction-associated steatohepatitis” (Nature Communications, 2024).
“And” between values parts separate entries of the source, which are not always exact repeats. Equal values may be shown once.

Experiments:
HFD-fed C57BL/6J mice = assay: DIO mice (HFD, 8 weeks): body weight; assay type: in vivo, mouse; settings: for Body weight: Predicted (LS) mean diff., Vehicle vs. 11c: Dunnett's test; for 16hr fasting B.W.: DIO C57BL/6J mice, PO; for Body weight: DIO mice, individual mice and group Mean, in g (unit assumed)
Excerpt: For in vivo efficacy in DIO models and CDAHFD models, the experimental protocol for this study was approved by the Institutional Animal Care and Use Committee (IACUC) at the Korea Advanced Institute of Science and Technology (No. KA2023-027-v2) or Kyungpook National University (No. KNU-20200134). All relevant ethical guidelines were followed. C57BL/6 J male mice (11 weeks old) were purchased from the Charles River Japan and were housed in a specific pathogen-free barrier facility under a regular light-dark cycle (12-hour light/12-hour dark) at 24°C with 40–60% humidity. Food (standard chow diet, Envigo, 2018S) and water were provided ad libitum. […] Mice were euthanized by the method of cervical dislocation. The measurement of lean and fat mass in live mice was performed by a body composition analyzer (LF50 BCA-analyzer, Bruker). After 6 h of fasting, mice were sacrificed, and tissue samples were obtained.

in vitro = settings: Chinese hamster

## Cc1nc2n(c(=O)c1CCN1CCC(=C3c4ccc(Cl)cc4CCc4cccnc43)CC1)CCCC2O (stereo not drawn) [Compound 11c]
HFD-fed C57BL/6J mice; 5mpk, week 12
  Body weight: Predicted (LS) mean diff., Vehicle vs. 11c: 0.7 g
HFD-fed C57BL/6J mice; 5mpk, week 13
  Body weight: Predicted (LS) mean diff., Vehicle vs. 11c: 0.6 g
HFD-fed C57BL/6J mice; 5mpk, week 14
  Body weight: Predicted (LS) mean diff., Vehicle vs. 11c: 0.7 g
HFD-fed C57BL/6J mice; 5mpk, week 15
  Body weight: Predicted (LS) mean diff., Vehicle vs. 11c: 0.6 g
HFD-fed C57BL/6J mice; 5mpk, week 16
  Body weight: Predicted (LS) mean diff., Vehicle vs. 11c: 1.1 g
HFD-fed C57BL/6J mice; 5mpk, week 17
  Body weight: Predicted (LS) mean diff., Vehicle vs. 11c: 1.7 g
HFD-fed C57BL/6J mice; 5mpk, week 18
  Body weight: Predicted (LS) mean diff., Vehicle vs. 11c: 2.1 g
HFD-fed C57BL/6J mice; 5mpk, week 19
  Body weight: Predicted (LS) mean diff., Vehicle vs. 11c: 2.7 g
HFD-fed C57BL/6J mice; 5mpk, week 20
  Body weight: Predicted (LS) mean diff., Vehicle vs. 11c: 2.7 g
HFD-fed C57BL/6J mice; 5mpk, week 21
  Body weight: Predicted (LS) mean diff., Vehicle vs. 11c: 3.4 g
HFD-fed C57BL/6J mice; 10 mpk daily oral gavage, 8 weeks, vs vehicle-treated mice
  body weight gain upon HFD: attenuated
HFD-fed C57BL/6J mice; 10mpk, week 12
  Body weight: Predicted (LS) mean diff., Vehicle vs. 11c: 0.1 g
HFD-fed C57BL/6J mice; 10mpk, week 13
  Body weight: Predicted (LS) mean diff., Vehicle vs. 11c: 0.9 g
HFD-fed C57BL/6J mice; 10mpk, week 14
  Body weight: Predicted (LS) mean diff., Vehicle vs. 11c: 1.5 g
HFD-fed C57BL/6J mice; 10mpk, week 15
  Body weight: Predicted (LS) mean diff., Vehicle vs. 11c: 1.8 g
HFD-fed C57BL/6J mice; 10mpk, week 16
  Body weight: Predicted (LS) mean diff., Vehicle vs. 11c: 3.7 g
HFD-fed C57BL/6J mice; 10mpk, week 17
  Body weight: Predicted (LS) mean diff., Vehicle vs. 11c: 6.3 g
HFD-fed C57BL/6J mice; 10mpk, week 18
  Body weight: Predicted (LS) mean diff., Vehicle vs. 11c: 7.2 g
HFD-fed C57BL/6J mice; 10mpk, week 19
  Body weight: Predicted (LS) mean diff., Vehicle vs. 11c: 7.7 g
HFD-fed C57BL/6J mice; 10mpk, week 20
  Body weight: Predicted (LS) mean diff., Vehicle vs. 11c: 7.2 g
HFD-fed C57BL/6J mice; 10mpk, week 21
  Body weight: Predicted (LS) mean diff., Vehicle vs. 11c: 7.2 g
HFD-fed C57BL/6J mice; 5mpk, group mean
  16hr fasting B.W.: 41.2
HFD-fed C57BL/6J mice; 5mpk, individual animals, 5 mg/kg
  16hr fasting B.W.: 43.7 and 38.6 and 37.5 and 35.1 and 41.4 and 48.5 and 43.4
HFD-fed C57BL/6J mice; 10mpk, group mean
  16hr fasting B.W.: 36.5
HFD-fed C57BL/6J mice; 10mpk, individual animals, 10 mg/kg
  16hr fasting B.W.: 33.5 and 41.1 and 34.8 and 42.8 and 35.7 and 31.2
HFD-fed C57BL/6J mice; 5mpk PO, week 12 (2021.04.26), 5 mg/kg
  Body weight: 25.4 and 23.4 and 24.4 and 26.8 and 26.0 and 30.2 and 25.6
HFD-fed C57BL/6J mice; 5mpk PO, week 13, 5 mg/kg
  Body weight: 29.8 and 27.5 and 28.5 and 28.2 and 28.9 and 32.0 and 29.6
HFD-fed C57BL/6J mice; 5mpk PO, week 13, 5 mg/kg, mean
  Body weight: 29.2
HFD-fed C57BL/6J mice; 5mpk PO, week 14, 5 mg/kg
  Body weight: 32.9 and 29.6 and 29.0 and 31.0 and 34.0 and 31.6
HFD-fed C57BL/6J mice; 5mpk PO, week 15, 5 mg/kg
  Body weight: 35.3 and 30.6 and 29.8 and 29.5 and 33.2 and 37.1 and 34.1
HFD-fed C57BL/6J mice; 5mpk PO, week 15, 5 mg/kg, mean
  Body weight: 32.8
HFD-fed C57BL/6J mice; 5mpk PO, week 16, 5 mg/kg
  Body weight: 37.5 and 32.7 and 32.5 and 31.1 and 35.5 and 40.4 and 36.8
HFD-fed C57BL/6J mice; 5mpk PO, week 16, 5 mg/kg, mean
  Body weight: 35.2
HFD-fed C57BL/6J mice; 5mpk PO, week 17, 5 mg/kg
  Body weight: 39.7 and 34.6 and 33.9 and 32.4 and 37.7 and 43.6 and 39.6
HFD-fed C57BL/6J mice; 5mpk PO, week 17, 5 mg/kg, mean
  Body weight: 37.4
HFD-fed C57BL/6J mice; 5mpk PO, week 18, 5 mg/kg
  Body weight: 41.7 and 36.9 and 35.3 and 33.1 and 40.0 and 45.0 and 41.5
HFD-fed C57BL/6J mice; 5mpk PO, week 18, 5 mg/kg, mean
  Body weight: 39.1
HFD-fed C57BL/6J mice; 5mpk PO, week 19, 5 mg/kg
  Body weight: 43.5 and 38.6 and 37.3 and 34.8 and 41.8 and 47.5 and 43.3
HFD-fed C57BL/6J mice; 5mpk PO, week 19, 5 mg/kg, mean
  Body weight: 41.0
HFD-fed C57BL/6J mice; 5mpk PO, week 20, 5 mg/kg
  Body weight: 45.7 and 40.4 and 39.5 and 37.0 and 43.5 and 51.0 and 45.4
HFD-fed C57BL/6J mice; 5mpk PO, week 20, 5 mg/kg, mean
  Body weight: 43.2
HFD-fed C57BL/6J mice; 5mpk PO, week 21, 5 mg/kg
  Body weight: 44.4 and 40.2 and 39.8 and 36.4 and 42.4 and 50.0 and 45.2
HFD-fed C57BL/6J mice; 5mpk PO, week 21, 5 mg/kg, mean
  Body weight: 42.6
HFD-fed C57BL/6J mice; 10mpk PO, week 12 (2021.04.26), 10 mg/kg
  Body weight: 26.6 and 29.1
HFD-fed C57BL/6J mice; 10mpk PO, week 13, 10 mg/kg
  Body weight: 29.9 and 31.2
HFD-fed C57BL/6J mice; 10mpk PO, week 14, 10 mg/kg
  Body weight: 31.8 and 32.6
HFD-fed C57BL/6J mice; 10mpk PO, week 15, 10 mg/kg
  Body weight: 34.0 and 33.3 and 29.5
HFD-fed C57BL/6J mice; 10mpk PO, week 16, 10 mg/kg
  Body weight: 36.3 and 34.1 and 30.0
HFD-fed C57BL/6J mice; 10mpk PO, week 17, 10 mg/kg
  Body weight: 36.6 and 35.0 and 29.8
HFD-fed C57BL/6J mice; 10mpk PO, week 18, 10 mg/kg
  Body weight: 35.5 and 37.1
HFD-fed C57BL/6J mice; 10mpk PO, week 19, 10 mg/kg
  Body weight: 34.6 and 39.9
HFD-fed C57BL/6J mice; 10mpk PO, week 20, 10 mg/kg
  Body weight: 35.7 and 43.1
HFD-fed C57BL/6J mice; 10mpk PO, week 21, 10 mg/kg
  Body weight: 36.0 and 43.2
In vitro
  IC50: > 100 µM
